Values quoted from earlier work as cited in US20080200497A1, “Hepatitis C Inhibitor Peptide Analogs” (priority 2005, published 2008).

System: hepatitis C virus
Details: two day clinical trial, patients infected with the hepatitis C virus

COc1ccc2c(O[C@@H]3C[C@H]4C(=O)N[C@]5(C(=O)O)C[C@H]5/C=C\CCCCC[C@H](NC(=O)OC5CCCC5)C(=O)N4C3)cc(-c3csc(NC(C)C)n3)nc2c1 [BILN 2061]
reduction of viral loads: effective in rapidly reducing viral loads
